From PMC10641813 (Journal of Medicinal Chemistry, 2023)
Values joined by “and” are separate entries in the source; they are usually repeats but may differ in a detail not shown here. Equal values may be shown once. Read-outs that look alike come from different tables or passages of the source.

Assays:
hCA I = target: T1, hCA I (Homo sapiens, UniProt P00915); assay: Stopped flow CO2 hydrase assay, hCA I; type: biochemical; conditions: for Ki: stopped flow technique, mean from three assays; for fold reduction in the inhibition of hCA I: relative to 11 (sulfonamide at para position)
T1 construct: made in house
T1 sequence (P00915 whole entry): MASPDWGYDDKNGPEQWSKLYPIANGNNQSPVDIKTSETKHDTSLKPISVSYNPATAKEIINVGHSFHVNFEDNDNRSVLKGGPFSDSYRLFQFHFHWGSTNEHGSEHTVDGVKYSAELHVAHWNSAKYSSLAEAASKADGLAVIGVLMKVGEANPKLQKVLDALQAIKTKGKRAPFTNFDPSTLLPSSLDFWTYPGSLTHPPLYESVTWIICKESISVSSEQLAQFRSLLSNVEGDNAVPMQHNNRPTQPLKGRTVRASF

hCA II = target: T2, hCA II (Homo sapiens, UniProt P00918); assay: Stopped flow CO2 hydrase assay, hCA II; type: biochemical; conditions: stopped flow technique, mean from three assays
T2 construct: made in house

hCA IX = target: T3, hCA IX (Homo sapiens, UniProt Q16790); assay: Stopped flow CO2 hydrase assay, hCA IX; type: biochemical
T3 construct: made in house

hCA XII = target: T4, hCA XII (Homo sapiens, UniProt O43570); assay: Stopped flow CO2 hydrase assay, hCA XII; type: biochemical; conditions: stopped flow technique, mean from three assays
T4 construct: made in house
T4 sequence (O43570 25-354): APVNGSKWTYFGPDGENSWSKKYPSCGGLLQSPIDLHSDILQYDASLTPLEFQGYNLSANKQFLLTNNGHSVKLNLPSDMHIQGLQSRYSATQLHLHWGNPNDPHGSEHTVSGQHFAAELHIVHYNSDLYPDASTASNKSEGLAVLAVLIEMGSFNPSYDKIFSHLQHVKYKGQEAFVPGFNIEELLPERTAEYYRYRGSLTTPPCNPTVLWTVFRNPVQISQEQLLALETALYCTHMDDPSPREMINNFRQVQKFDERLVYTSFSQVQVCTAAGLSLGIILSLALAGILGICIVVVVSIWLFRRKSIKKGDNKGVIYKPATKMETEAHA

tubulin [1] = conditions: tubulin assembly; read-out: Tubulin IC50 ± SD; cited from earlier work
tubulin [2] = conditions: cited from earlier work
MCF-7 cells = assay: Inhibition of growth of MCF-7 cells; type: cell-based, human
Procedure: (§1) ; 11 and 15, NCI/ADR-RES and OVCAR-8 cells) to 4.8 (19, OVCAR-8 cells). […] . […] Cells were seeded in 96-well plates.

tubulin [3] = assay: Tubulin assembly (polymerization) assay; type: biochemical; conditions: at 20 μM
Procedure: The reaction mixtures contained 0.8 M monosodium glutamate (pH 6.6 with HCl in a 2 M stock solution), 10 μM tubulin, 4% (v/v) DMSO, and varying concentrations of compound. […] The extent of the reaction was measured.

OVCAR-8 cells = assay: Inhibition of growth of OVCAR-8 cells; type: cell-based, human; conditions: ovarian tumor cell line 8, 96 h
Procedure: as §1

NCI/ADR-RES cells [4] = assay: Inhibition of growth of NCI/ADR-RES DOX-resistant cells; type: cell-based, human; conditions: for IC50: DOX-resistant cell line derived from OVCAR-8, 96 h
Procedure: as §1

HT29/DX cells = assay: Viability of HT29/DX cells with DOX alone or coincubated with 15 (WST-1); type: cell-based, human; conditions: 5 μM DOX alone, 72 h
Procedure: (§2) Cells were seeded in 96-well plates.

[5] = Viability of MDCK cells with DOX alone or coincubated with 15 (WST-1); type: cell-based, canine; conditions: dog, MDCK cells (sensitive, parental); read-out: cell viability
Procedure: as §2

MDCK/P-gp cells = assay: Viability of MDCK/P-gp cells with DOX alone or coincubated with 15 (WST-1); type: cell-based, canine; conditions: 5 μM DOX alone, 72 h
Procedure: as §2

SW480 cells = assay: Inhibition of growth of SW480 cells (XTT); conditions: read-out: IC50 SW480; human colorectal carcinoma cells; combinations: each compound at its IC50 concentration
Procedure: (§3) In drug combination studies, each compound was used at the corresponding IC50 concentration.
(§4) Cells were grown in Dulbecco’s modified Eagle’s medium (D-MEM) supplemented with 10% fetal bovine serum (FBS) at 37 °C with 5% CO2. In all experiments, 300,000 cells were plated in 9 cm^2 dishes and exposed to test compound dissolved in DMSO (0.1% final concentration) at the indicated concentrations. […] Cells were kept at low passage, returning to the original frozen stocks every 3–4 months.

SW620 cells = assay: Inhibition of growth of SW620 cells (XTT); conditions: read-out: IC50 SW620; human colorectal carcinoma cells; combinations: each compound at its IC50 concentration
Procedure: as §3, §4

HCT116 cells = assay: Inhibition of growth of HCT116 cells (MTT); conditions: read-out: IC50 HCT116; human colorectal carcinoma cells; combinations: each compound at its IC50 concentration
Procedure: as §3, §4

NCI/ADR-RES cells [6] = system: NCI/ADR-RES cells; set-up: method as in PMID 22044164; conditions: DOX-resistant cell line; cited from earlier work
[7] = stopped flow technique, mean from three assays
[8] = human nonmetastatic breast cancer epithelial cells

Compound | Ki (hCA I) [nM] | Ki (hCA II) [nM] | Ki (hCA IX; [7]) [nM] | Ki (hCA XII) [nM] | further results
COc1cc(C(=O)c2cn(-c3cccc(S(N)(=O)=O)c3)c3ccccc23)cc(OC)c1OC [Compound 20, 3-(3-(3,4,5-Trimethoxybenzoyl)-1H-indol-1-yl)benzenesulfonamide] | 943 | 229 | 69 | 58.1 | 
COc1cc(C(=O)c2ccn(-c3ccccc3)c2)cc(OC)c1OC [Compound 2] |  |  |  |  | IC50 (tubulin [1]): 1500 nM; inhibition of colchicine binding (tubulin [2]): 81%
4-(3-Benzoyl-1H-pyrrol-1-yl)benzenesulfonamide [Compound 10] |  |  | 66 | 47.1 | 
4-(3-Benzoyl-1H-indol-1-yl)benzenesulfonamide [Compound 18] |  |  |  | 52 | Ki (hCA IX): 31.6 nM
COc1cc(C(=O)c2ccn(-c3ccccc3S(N)(=O)=O)c2)cc(OC)c1OC [Compound 13, 2-(3-(3,4,5-Trimethoxybenzoyl)-1H-pyrrol-1-yl)benzenesulfonamide] | 5840 | 888 | 229 | 425 | fold reduction in the inhibition of hCA I (hCA I): 61.0 fold
COc1ccc(/C=C\c2cc(OC)c(OC)c(OC)c2)cc1O [CSA4, combretastatin A-4, reference compound] |  |  |  |  | IC50 (MCF-7 cells; Homo sapiens, MCF7, reference compound in the MCF-7 assay): 15 nM
4-(3-(3,4,5-trimethoxybenzoyl)-1H-pyrrol-1-yl)benzenesulfonamide [Compound 11] |  |  |  | 11.5 | inhibition of tubulin assembly (tubulin [3]): did not inhibit tubulin assembly; IC50 (MCF-7 cells; [8]): 3900 ± 80 nM; IC50 (OVCAR-8 cells): 1900 ± 70 nM; IC50 (NCI/ADR-RES cells [4]): 1900 nM and 2200 nM
COc1cc(C(=O)c2cn(-c3cccc(S(N)(=O)=O)c3)cc2-c2ccccc2)cc(OC)c1OC [Compound 16, 3-(3-Phenyl-4-(3,4,5-trimethoxybenzoyl)-1H-pyrrol-1-yl)benzenesulfonamide] | 1030 | 186 | 39.1 | 28.9 | 
COc1cc(C(=O)c2cn(-c3ccccc3S(N)(=O)=O)cc2-c2ccccc2)cc(OC)c1OC [Compound 17, 2-(3-Phenyl-4-(3,4,5-trimethoxybenzoyl)-1H-pyrrol-1-yl)benzenesulfonamide] | > 10000 | > 10000 | 8860 | 1000 | 
COc1cccc2c1C(=O)c1c(O)c3c(c(O)c1C2=O)C[C@@](O)(C(=O)CO)C[C@@H]3O[C@H]1C[C@H](N)[C@H](O)[C@H](C)O1 [DOX, doxorubicin, reference compound] |  |  |  |  | cell viability (HT29/DX cells): did not affect the viability; viability at 72 h, 5 μM [5]: < 30%; cell viability (MDCK/P-gp cells): did not affect the viability
COc1cc(C(=O)c2cn(-c3ccccc3S(N)(=O)=O)c3ccccc23)cc(OC)c1OC [Compound 21, 2-(3-(3,4,5-Trimethoxybenzoyl)-1H-indol-1-yl)benzenesulfonamide] | > 10000 | > 10000 | 7750 | 1190 | 
COc1cc(C(=O)c2cn(-c3ccccc3)cc2-c2ccccc2)cc(OC)c1OC [Compound 3] |  |  |  |  | IC50 (tubulin [1]): 1100 nM; inhibition of colchicine binding (tubulin [2]): 66%
4-(3-Benzoyl-4-phenyl-1H-pyrrol-1-yl)benzenesulfonamide [Compound 14] |  |  | 38.6 | 59.4 | 
COc1cc(C(=O)c2cn(-c3ccc(S(N)(=O)=O)cc3)c3ccccc23)cc(OC)c1OC [Compound 19, 4-(3-(3,4,5-Trimethoxybenzoyl)-1H-indol-1-yl)benzenesulfonamide] | 446 | 67.8 |  |  | Ki (hCA IX): 7.3 nM; inhibition of tubulin assembly (tubulin [3]): partial inhibition; IC50 (MCF-7 cells; [8]): 3600 ± 1000 nM; IC50 (OVCAR-8 cells): 4800 ± 300 nM; IC50 (NCI/ADR-RES cells [4]): 2100 ± 200 nM; IC50 (SW480 cells): 37400 ± 1400 nM; IC50 (SW620 cells): 45400 ± 1700 nM; IC50 (HCT116 cells): 14900 ± 1300 nM
COc1cc(C(=O)c2ccn(-c3cccc(S(N)(=O)=O)c3)c2)cc(OC)c1OC [Compound 12, 3-(3-(3,4,5-Trimethoxybenzoyl)-1H-pyrrol-1-yl)benzenesulfonamide] | 644 | 84.2 | 34.7 | 21.3 | fold reduction in the inhibition of hCA I (hCA I): 6.7 fold; EC50 (NCI/ADR-RES cells [4]; Homo sapiens, NCI/ADR-RES, DOX-resistant cell line): 2100 to 2200 nM
CCC1=C[C@@H]2CN(C1)Cc1c([nH]c3ccccc13)[C@@](C(=O)OC)(c1cc3c(cc1OC)N(C)[C@H]1[C@@](O)(C(=O)OC)[C@H](OC(C)=O)[C@]4(CC)C=CCN5CC[C@]31[C@@H]54)C2 [vinorelbine] |  |  |  |  | IC50 (NCI/ADR-RES cells [6]): 5000 ± 1000 nM
